In PubChem BioAssay (NCI):
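Assay format: 96-well plates, 48-hour exposure. Here, GI50 denotes the concentration required for 50% inhibition of growth. TGI: concentration producing complete growth inhibition.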

Assays:
Assay in all cases: growth of human tumour cells (NCI), 48 h
UACC-62 melanoma = system: UACC-62 melanoma
RXF 393 renal = system: RXF 393 renal
ACHN renal = system: ACHN renal
A549 NSCLC = system: A549 NSCLC
OVCAR-5 ovarian = system: OVCAR-5 ovarian
RPMI-8226 leukemia = system: RPMI-8226 leukemia
OVCAR-4 ovarian = system: OVCAR-4 ovarian
U251 CNS = system: U251 CNS
A498 renal = system: A498 renal
IGROV1 ovarian = system: IGROV1 ovarian
M14 melanoma = system: M14 melanoma
NCI-H460 lung = system: NCI-H460 lung
SF-539 CNS = system: SF-539 CNS
NCI-H226 lung = system: NCI-H226 lung
SNB-19 CNS = system: SNB-19 CNS
CAKI-1 renal = system: CAKI-1 renal
K-562 leukemia = system: K-562 leukemia
SF-295 CNS = system: SF-295 CNS
SR leukemia = system: SR leukemia
SK-OV-3 ovarian = system: SK-OV-3 ovarian
BT-549 breast = system: BT-549 breast
HL-60(TB) leukemia = system: HL-60(TB) leukemia
NCI/ADR-RES ovarian = system: NCI/ADR-RES ovarian
KM12 colon = system: KM12 colon
SK-MEL-5 melanoma = system: SK-MEL-5 melanoma
SF-268 CNS = system: SF-268 CNS
HOP-92 NSCLC = system: HOP-92 NSCLC
HCC-2998 colon = system: HCC-2998 colon
HOP-62 NSCLC = system: HOP-62 NSCLC
HCT-15 colon = system: HCT-15 colon
UACC-257 melanoma = system: UACC-257 melanoma
SN12C renal = system: SN12C renal
SW-620 colon = system: SW-620 colon
SK-MEL-28 melanoma = system: SK-MEL-28 melanoma
786-0 renal = system: 786-0 renal
HS 578T breast = system: HS 578T breast
COLO 205 colon = system: COLO 205 colon
SNB-75 CNS = system: SNB-75 CNS
SK-MEL-2 melanoma = system: SK-MEL-2 melanoma
DU-145 prostate = system: DU-145 prostate
NCI-H522 lung = system: NCI-H522 lung
UO-31 renal = system: UO-31 renal
MCF7 breast = system: MCF7 breast
HCT-116 colon = system: HCT-116 colon
TK-10 renal = system: TK-10 renal
LOX IMVI melanoma = system: LOX IMVI melanoma
CCRF-CEM leukemia = system: CCRF-CEM leukemia
MALME-3M melanoma = system: MALME-3M melanoma
PC-3 prostate = system: PC-3 prostate
T-47D breast = system: T-47D breast
OVCAR-3 ovarian = system: OVCAR-3 ovarian
MDA-MB-435 = system: MDA-MB-435
HT29 colon = system: HT29 colon
NCI-H23 lung = system: NCI-H23 lung
OVCAR-8 ovarian = system: OVCAR-8 ovarian

## N#Cc1cccc(Nc2nccc(-c3cnn4ncccc34)n2)c1
UACC-62 melanoma
  GI50: 3.96 nM
  TGI: 11.6 nM
RXF 393 renal
  GI50: 2.69 nM
  TGI: 7.91 nM
ACHN renal
  GI50: 4.87 nM
  TGI: > 25000 nM
A549 NSCLC
  GI50: 7.29 nM
  TGI: > 25000 nM
OVCAR-5 ovarian
  GI50: 8.23 nM
  TGI: > 25000 nM
RPMI-8226 leukemia
  GI50: 7.63 nM
  TGI: 21.2 nM
OVCAR-4 ovarian
  GI50: 32.2 nM
U251 CNS
  GI50: 5.52 nM
  TGI: > 25000 nM
A498 renal
  GI50: 3.71 nM
  TGI: 9.1 nM
IGROV1 ovarian
  GI50: 9.37 nM
  TGI: > 11600 nM
M14 melanoma
  GI50: 5.25 nM
  TGI: 12.5 nM
NCI-H460 lung
  GI50: 8.37 nM
  TGI: > 25000 nM
SF-539 CNS
  GI50: 3.81 nM
  TGI: 15.4 nM
NCI-H226 lung
  GI50: 5.13 nM
  TGI: 15.2 nM
SNB-19 CNS
  GI50: 7.02 nM
  TGI: > 25000 nM
CAKI-1 renal
  GI50: 7.29 nM
  TGI: 1170 nM
K-562 leukemia
  GI50: 7.82 nM
  TGI: > 25000 nM
SF-295 CNS
  GI50: 4.87 nM
  TGI: 22.3 nM
SR leukemia
  GI50: 2.5 nM
SK-OV-3 ovarian
  GI50: 14 nM
  TGI: > 25000 nM
BT-549 breast
  GI50: 5.59 nM
  TGI: 17 nM
HL-60(TB) leukemia
  GI50: 3.63 nM
  TGI: < 12.9 nM
NCI/ADR-RES ovarian
  GI50: 6.97 nM
KM12 colon
  GI50: 6.32 nM
  TGI: 26.3 nM
SK-MEL-5 melanoma
  GI50: 6.18 nM
  TGI: 18 nM
SF-268 CNS
  GI50: 4.98 nM
  TGI: 300 nM
HOP-92 NSCLC
  GI50: 5.89 nM
  TGI: 16.6 nM
HCC-2998 colon
  GI50: 6.95 nM
  TGI: 24.1 nM
HOP-62 NSCLC
  GI50: 7.49 nM
HCT-15 colon
  GI50: 7.1 nM
  TGI: > 25000 nM
UACC-257 melanoma
  GI50: 5.94 nM
  TGI: 15.4 nM
SN12C renal
  GI50: 6.74 nM
  TGI: > 25000 nM
SW-620 colon
  GI50: 6.02 nM
  TGI: > 25000 nM
SK-MEL-28 melanoma
  GI50: 4.08 nM
  TGI: 12.5 nM
786-0 renal
  GI50: 6.08 nM
  TGI: > 25000 nM
HS 578T breast
  GI50: 4.82 nM
  TGI: 21 nM
COLO 205 colon
  GI50: 2.95 nM
  TGI: 6.63 nM
SNB-75 CNS
  GI50: 4.94 nM
  TGI: 12 nM
SK-MEL-2 melanoma
  GI50: 4.58 nM
  TGI: 10.5 nM
DU-145 prostate
  GI50: 6.61 nM
  TGI: 3460 nM
NCI-H522 lung
  GI50: 7.52 nM
  TGI: 39.4 nM
UO-31 renal
  GI50: 7.19 nM
  TGI: > 25000 nM
MCF7 breast
  GI50: 8.56 nM
  TGI: > 25000 nM
HCT-116 colon
  GI50: 4.43 nM
  TGI: 1340 nM
TK-10 renal
  GI50: 6.03 nM
  TGI: 17.2 nM
LOX IMVI melanoma
  GI50: 2.79 nM
  TGI: > 8750 nM
CCRF-CEM leukemia
  GI50: 6 nM
  TGI: > 25000 nM
MALME-3M melanoma
  GI50: 7.6 nM
  TGI: 20.9 nM
PC-3 prostate
  GI50: 7.45 nM
  TGI: > 25000 nM
T-47D breast
  GI50: 18.2 nM
  TGI: 219 nM
OVCAR-3 ovarian
  GI50: 5.41 nM
  TGI: 15 nM
MDA-MB-435
  GI50: 6.28 nM
  TGI: 23.9 nM
HT29 colon
  GI50: 5.72 nM
  TGI: 34 nM
NCI-H23 lung
  GI50: 6.86 nM
  TGI: 23.9 nM
OVCAR-8 ovarian
  GI50: 6.5 nM
  TGI: > 25000 nM
